AC50 and EC50 data for 52 compounds are collected here from ChEMBL document CHEMBL1201862, “PubChem BioAssay data set” (2004).

Series [1] deals with Cytochrome P450 2C19 (Homo sapiens, UniProt P33261). Kind of series: Cytochrome panel assay with activity outcomes. Panel member name: p450-cyp2c19 Compounds with AC50 equal or less than 10 uM are considered active. In kind it is functional.
In series [2] the target is T1, Heat shock factor protein 1 (Mus musculus, UniProt P38532).
T1 sequence (P38532 whole entry): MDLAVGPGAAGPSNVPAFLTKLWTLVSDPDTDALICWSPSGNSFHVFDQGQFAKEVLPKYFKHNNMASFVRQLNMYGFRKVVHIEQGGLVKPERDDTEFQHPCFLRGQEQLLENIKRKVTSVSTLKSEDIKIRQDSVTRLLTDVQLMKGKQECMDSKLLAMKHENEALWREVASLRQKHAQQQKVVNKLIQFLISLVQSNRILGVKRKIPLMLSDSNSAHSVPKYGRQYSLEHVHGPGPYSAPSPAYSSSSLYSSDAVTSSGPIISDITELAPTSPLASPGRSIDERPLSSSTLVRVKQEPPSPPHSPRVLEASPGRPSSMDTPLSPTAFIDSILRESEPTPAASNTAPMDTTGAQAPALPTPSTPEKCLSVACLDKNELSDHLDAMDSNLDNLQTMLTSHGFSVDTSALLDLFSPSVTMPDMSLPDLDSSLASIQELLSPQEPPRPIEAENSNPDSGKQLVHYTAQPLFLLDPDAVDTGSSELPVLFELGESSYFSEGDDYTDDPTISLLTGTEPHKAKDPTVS
As to the kind of experiment: decrease of HSF1-responsive luciferase luminescence – cell-based, NIH3T3, dose retest, confirmation (AID 2382).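 Note: NIH3T3 fibroblasts with HSF1-driven luciferase reporter stressed by proteasome inhibitor MG132; luminescence from HSF1-driven luciferase expression after 8 hours of MG132 stress.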 In kind it is functional.

Series [3] concerns the target Cytochrome P450 2C9 (Homo sapiens, UniProt P11712).
Series [4] has as its target Cytochrome P450 3A4 (Homo sapiens, UniProt P08684).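 Note: CYP3A4 tested as one member of a cytochrome P450 panel screen.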
Series [5] can be described thus: Trypanosoma cruzi growth suppression in host cells – NIH3T3 host cells, beta-gal luminescence, confirmation (AID 2044).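 Note: intracellular parasites grown in NIH/3T3 mouse fibroblasts as host cells; luminescent beta-galactosidase reporter signal from transgenic T. cruzi replicating inside host cells; inhibitors lower the luminescence signal.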 In kind it is functional, cell-based.
Series [6] is described as follows: NIH3T3 cell viability loss – ATP luminescence, mouse fibroblasts, counter-screen, dose response (AID 2010).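 Note: cells exposed to compound for about 90 hours before reading.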 In kind it is functional, cell-based. A general note: The purpose of a counterscreen is to sort out artefacts and off-target activity.

Activity calls are given as the source filed them.

A word on the AC50: it is the concentration giving half of the maximal activity seen. The EC50 is the midpoint of the concentration-response curve.

Sequence of Cytochrome P450 2C9 (P11712 whole entry): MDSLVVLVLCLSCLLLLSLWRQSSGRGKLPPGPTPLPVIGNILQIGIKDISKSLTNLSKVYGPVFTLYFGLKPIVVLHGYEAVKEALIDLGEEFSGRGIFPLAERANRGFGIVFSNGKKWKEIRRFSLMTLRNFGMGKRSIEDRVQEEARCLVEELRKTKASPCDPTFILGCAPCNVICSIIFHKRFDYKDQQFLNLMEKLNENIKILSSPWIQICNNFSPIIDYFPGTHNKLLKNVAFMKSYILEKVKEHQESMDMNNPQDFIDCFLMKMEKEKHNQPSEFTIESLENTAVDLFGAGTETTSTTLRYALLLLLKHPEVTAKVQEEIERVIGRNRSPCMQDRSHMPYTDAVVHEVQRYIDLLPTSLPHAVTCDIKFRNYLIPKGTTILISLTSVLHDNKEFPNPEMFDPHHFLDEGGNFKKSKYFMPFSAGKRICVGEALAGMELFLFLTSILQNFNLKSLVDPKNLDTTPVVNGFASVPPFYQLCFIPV
Sequence of Cytochrome P450 3A4 (P08684 whole entry): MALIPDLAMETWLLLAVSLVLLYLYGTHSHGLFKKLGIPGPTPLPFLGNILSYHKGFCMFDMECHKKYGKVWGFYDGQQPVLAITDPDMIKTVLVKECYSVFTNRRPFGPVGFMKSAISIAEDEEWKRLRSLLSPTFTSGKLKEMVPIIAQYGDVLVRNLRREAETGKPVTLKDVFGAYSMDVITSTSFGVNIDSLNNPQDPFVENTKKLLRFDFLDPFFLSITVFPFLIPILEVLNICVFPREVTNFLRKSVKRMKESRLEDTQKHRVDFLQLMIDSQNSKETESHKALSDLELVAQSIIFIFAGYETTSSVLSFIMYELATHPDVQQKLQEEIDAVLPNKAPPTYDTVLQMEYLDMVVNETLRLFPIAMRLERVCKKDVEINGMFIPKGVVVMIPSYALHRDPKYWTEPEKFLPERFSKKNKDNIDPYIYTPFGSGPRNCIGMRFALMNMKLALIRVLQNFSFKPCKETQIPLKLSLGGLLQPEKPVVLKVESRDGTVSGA
Sequence of Cytochrome P450 2C19 (P33261 whole entry): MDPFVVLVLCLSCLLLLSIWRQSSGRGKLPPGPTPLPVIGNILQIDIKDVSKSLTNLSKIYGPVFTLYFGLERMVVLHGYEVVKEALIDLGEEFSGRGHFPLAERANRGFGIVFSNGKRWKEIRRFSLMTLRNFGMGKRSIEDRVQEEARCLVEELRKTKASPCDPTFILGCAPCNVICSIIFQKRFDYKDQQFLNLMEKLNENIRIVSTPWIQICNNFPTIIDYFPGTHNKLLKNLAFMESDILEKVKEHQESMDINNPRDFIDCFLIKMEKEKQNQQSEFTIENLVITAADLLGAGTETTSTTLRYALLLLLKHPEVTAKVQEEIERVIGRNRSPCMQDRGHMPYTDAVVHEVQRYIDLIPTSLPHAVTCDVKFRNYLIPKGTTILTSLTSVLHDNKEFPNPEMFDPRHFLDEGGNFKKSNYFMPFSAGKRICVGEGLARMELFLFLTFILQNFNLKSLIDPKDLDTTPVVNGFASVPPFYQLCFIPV

Turning to `CCOc1ccc(-c2nnc3ccc(SC)nn23)cc1`, the half-maximal activity concentration (AC50) in series [1] (read-out: AC50) was 7.94 µM (inconclusive).
Turning to `Cc1cc(Cl)ccc1OCC(=O)Nc1nc(-c2cccnc2)cs1`, the EC50 in series [2] is > 195 µM (not active).
For the compound `CC(=O)CC(=O)Nc1ccc2ccccc2c1`, in series [1], the AC50 entry was “inconclusive”.
As for `Cc1cc(N2CCOCC2)ncc1[N+](=O)[O-]`, the AC50 in series [3] was 14.1 µM (inconclusive).
Regarding `Cc1cccn2c(=O)c3cc(C(=O)N4COCC4(C)C)n(C)c3nc12`, in series [1] (read-out: AC50), the concentration at half-maximal activity (AC50) was 4.47 µM (inconclusive).
As for `CN1CC[C@@]2(CCCN(C(=O)c3cc(C(F)(F)F)cc(C(F)(F)F)c3)C2)C1`, in series [4], the AC50 is 25.1 µM (inconclusive).
On the same count and under the same terms, the value for `COc1ccc(-n2c(-c3ccccc3)nc(=S)c3c2CCCC3)cc1` was 20 µM (inconclusive).
As to `O=C(COC(=O)c1cccnc1Cl)c1ccccc1`, the AC50 in series [1] (read-out: AC50) was 39.8 µM (inconclusive); in series [3], 17.8 µM (inconclusive).
As for `CS(=O)(=O)N1CCN(c2cccc(Cl)n2)CC1`, in series [2], the EC50 is > 195 µM (not active).
Regarding `C=CCC(C(=O)OC)(C(=O)OC)c1ccc([N+](=O)[O-])cn1`, in series [1] (read-out: AC50), the half-maximal activity concentration (AC50) was 14.1 µM (inconclusive).
For the compound `N=C(N)N[C@H](CCC(=O)O)C(=O)O`, in series [4], the AC50 was 3.16 µM (inconclusive).
In the case of `Cc1cccc(CNc2nc(-c3ccc4c(c3)OCO4)nc3ccccc23)c1`, the half-maximal activity concentration (AC50) in series [3] was 1 µM (inconclusive).
On to `Cc1cccc(N(C(=O)C(F)(F)F)C(C(=O)NC2CCCCC2)c2cccs2)c1` (stereo not given), for which the concentration for a half-maximal effect (EC50) is 3.39 µM (active) in series [5] and > 60 µM (not active) in series [6].
Regarding `CC(=O)Nc1ccccc1C(=O)OCC(=O)c1ccc2ccccc2c1`, in series [1] (read-out: AC50), the AC50 was 1.26 µM (inconclusive).
On to `CC(=O)Nc1ccc2c(c1)/C(=N/c1ccc(C(=O)O)cc1)c1ccccc1-2`, for which the AC50 in series [4] is 3.98 µM (inconclusive).
On to `CCc1ccc(NC(=O)C2CCC(CNC(=O)[C@@H]3Cc4ccccc4CN3)CC2)cc1` (stereo not given in full), for which the EC50 in series [2] is listed as > 195 µM (not active).
`COC(=O)[C@H]1C[C@@H]1[C@H](NC(=O)c1cc(C)on1)c1ccccc1`: the results for the half-maximal activity concentration (AC50) in series [4] and in series [3] were 15.8 µM (inconclusive) and 31.6 µM (inconclusive), respectively.
For `c1cncc(CNc2nc(-c3ccoc3)nc3ccccc23)c1`, in series [1] (read-out: AC50), the AC50 is 20 µM (inconclusive).
Regarding `COc1ccc2c(c1)C=C(CN1CCN(C3CCCC3)C(CCO)C1)CO2` (stereo not given), the results for the concentration giving a half-maximal response (EC50) in series [5] and in series [6] were 1.75 µM (active) and > 60 µM (not active), respectively.
As for `O=C(c1csnn1)N1CCC[C@@]2(CCN(Cc3nccs3)C2)C1`, in series [1] (read-out: AC50), the half-maximal activity concentration (AC50) is 25.1 µM (inconclusive).
Consider `COc1cccc(CN(C)CC2CCCN(CCc3ccc(Cl)cc3)C2)c1OC` (stereo not given), for which the EC50 in series [2] was > 195 µM (not active).
Take `CN=C(S)N(CCc1c(C)[nH]c2ccc(Cl)cc12)Cc1cccs1`: the results for the EC50 in series [5] and in series [6] were 2.28 µM (active) and > 30 µM (not active), respectively.
With `N#Cc1cc(-c2ccc(Cl)cc2)cnc1Sc1ccccc1`, the EC50 in series [5] was 3.77 µM (active); in series [6], > 60 µM (not active).
`CCSc1nnc(NC(=O)Cc2ccc(OC)c(OC)c2)s1`: the AC50 in series [1] (read-out: AC50) is 28.2 µM (inconclusive); in series [3], 2.82 µM (inconclusive).
For the compound `CC(C)(C)c1ccc(C(=O)Nc2cccc3c(=O)[nH][nH]c(=O)c23)cc1`, the concentration for a half-maximal effect (EC50) in series [2] was 3.66 µM (active).
With `Cc1ccc(C)c(N2CN(Cc3cccnc3)CN=C2S)c1`, the results for the EC50 in series [5] and in series [6] were 0.726 µM (active) and > 60 µM (inconclusive), respectively.
As for `NC(=O)c1cc2ccncc2c2ccccc12`, the EC50 in series [2] was 4.29 µM (active).
For `C[C@@]12CCC(=O)C=C1CC[C@H]1[C@@H]2[C@@H](O)C[C@]2(C)[C@@H]1CC[C@@]2(O)C(=O)COC(=O)C1CCCC1`, in series [4], the AC50 is 5.01 µM (inconclusive).
Turning to `COC(=O)[C@@]1(Cc2ccc(OC)cc2)[C@H]2c3cc(C(=O)N4CCCC4)n(Cc4cc(F)c(F)c(F)c4)c3C[C@H]2CN1C(=O)c1ccccc1`, the AC50 in series [1] (read-out: AC50) is 1.58 µM (inconclusive).
For `CCOc1ccc(CCNC(=O)c2nn(C)c3c2CS(=O)(=O)c2ccccc2-3)cc1`, the EC50 in series [2] is recorded as > 195 µM (not active).
For `Cn1c(=N)n(CC(O)c2ccccc2)c2ccccc21` (stereo not given), the EC50 in series [2] was > 195 µM (not active).
Turning to `CCn1cc(S(=O)(=O)Nc2ccc3c(c2)OCCO3)cn1`, in series [2], the EC50 is 1.86 µM (active).
The same measure, in the same setting: the value for `CCCNC(=O)c1cccc(COCC(F)(F)F)c1` was > 195 µM (not active).
Consider `COc1ccccc1-c1cncnc1NCCNC(C)=O`, for which, in series [1] (read-out: AC50), the half-maximal activity concentration (AC50) was 39.8 µM (inconclusive).
Regarding `CCOC(=O)N1CCC(NC(=O)CCC(=O)N2CCOc3ccccc32)CC1`, the AC50 was 10 µM (inconclusive) in series [4] and 14.1 µM (inconclusive) in series [1] (read-out: AC50).
Take `COc1ccc(CN2CCN(Cc3csc(C(C)=O)c3)CC2CCO)c(C)c1C` (stereo not given): the 50% effective concentration (EC50) was 0.284 µM (active) in series [5] and > 60 µM (not active) in series [6].
For `Cc1ccc(C(=O)N(CCCN(C)C)c2nc3ccc(Cl)cc3s2)cc1C` the same measures were 0.216 µM (active) and > 60 µM (inconclusive).
For `O=S(=O)(NCC(c1cccnc1)N1CCN(Cc2ccccc2)CC1)c1ccc(Cl)cc1` (stereo not given) the same measures were 0.641 µM (active) and > 60 µM (not active).
For `COCCn1c(=O)[nH]c2cc(C(=O)N3CCN(c4ccccc4OC)CC3)ccc2c1=O`, the AC50 in series [4] was 14.1 µM (inconclusive); in series [1] (read-out: AC50) it was 6.31 µM (inconclusive).
As for `CN1CCN(c2ccc(S(=O)(=O)N3CCOCC3)cc2NC(=O)CCc2ccccc2)CC1`, the EC50 in series [5] was 1.58 µM (active); in series [6] it was > 30 µM (not active).
Turning to `O=C(Oc1ccccc1)N1CCC2(CCCN(c3ccccc3)C2)CC1`, the AC50 was 31.6 µM (inconclusive) in series [4] and 12.6 µM (inconclusive) in series [3].
`COc1ccc(/C=C/C(=O)OCCCN(C)C)cc1`: the values for the half-maximal effective concentration (EC50) in series [5] and in series [6] were 0.237 µM (active) and > 60 µM (not active), respectively.
As for `COc1cc(NC(=O)N[C@@H](Cc2c[nH]c3ccccc23)C(=O)O)c(C(=O)O)cc1OC`, the EC50 in series [2] was > 195 µM (not active).
For `CCC(=O)N1CCc2cc(S(=O)(=O)NC(C(=O)NCc3ccc(C)cc3)C(C)C)ccc21` (stereo not given), the EC50 in series [2] is > 195 µM (not active).
`CCOC(=O)c1c(C)nc2c(c1-c1ccccc1)C(=O)CC(C)(C)C2`: the concentration at half-maximal activity (AC50) in series [3] was 15.8 µM (inconclusive).
Turning to `CC(C)(C)C(=O)N1CCC(O)(CS(=O)(=O)Cc2ccc(Cl)cc2)CC1`, the AC50 in series [4] was 20 µM (inconclusive).
With `C/C(=N\NC(=O)c1c(C)nc2ccccn12)c1ccc(C(C)(C)C)cc1`, the EC50 in series [2] was > 195 µM (not active).
The same measure, in the same setting: the figure for `CCc1nnc(N/N=C\c2ccc(OC(C)=O)c(OC)c2)n1N` is > 195 µM (not active).
For `C/C(=N\N(Cc1ccccc1)c1ccccc1)c1cccnc1`, the concentration for a half-maximal effect (EC50) is 3.78 µM (active) in series [5] and > 60 µM (not active) in series [6].
On to `Cc1cc(C)c(S(=O)(=O)N/N=C/c2ccc3c(c2)OCO3)c(C)c1`, for which the 50% effective concentration (EC50) in series [2] is > 195 µM (not active).
Turning to `Cc1[nH]n(-c2ccccc2)c(=O)c1/N=N/c1cccc([N+](=O)[O-])c1`, the figures for the 50% effective concentration (EC50) in series [5] and in series [6] were > 30 µM (not active) and > 60 µM (not active), respectively.
With `CC1=C(CC(=O)O)c2cc(F)ccc2/C1=C\c1ccc(S(C)(=O)=O)cc1` [EXISULIND], in series [1], the AC50 entry is “inconclusive”.
